Measured values reported in patent US9427408B2, “Silica-matrix forming compositions, materials formed therefrom, and methods of using the same” (priority 2011, dated 2016).

What was measured:
HFF cells = assay type: cell-based; conditions: 0.19 and 0.38 M EG, 48 h incubation
Protocol: (§1) Human foreskin fibroblasts (HFF), and mouse embryonic fibroblasts (MEF) were obtained from the American Type Cell Collection (Manasas, Va.). HFF and MEF cells were cultured in DMEM basal media supplemented with 15% fetal bovine serum (FBS), and 1% penicillin/streptomycin. Cells were incubated in a 5% CO2 atmosphere at 37° C. until they reached 80-90% confluence. Cells were then washed with phosphate buffer saline (PBS) and trypsinized with 0.25% Trypsin-EDTA for 5 min at 37° C. For cytotoxicity measurements and encapsulation experiments, cells were centrifuged at 800 rpm for 5 min. The supernatant was removed and the pelleted cells were suspended in their own growth media at a concentration of about 500,000 cells/ml.
(§2) Membrane integrity of the encapsulated cells in silica and SPEG gels was measured using a live-dead fluorescence assay containing Hoechst (H) and Propidium Iodide (PI) fluorescent dyes. A Nikon Eclipse T200 microscope (Nikon Instruments Inc., Melville, N.Y.) equipped with 10×, and 20× objectives were used to collect the bright field and fluorescent images.
(§3) MA of the encapsulated cells was measured with alamar blue (AB) fluorescence. For fluorescence measurements a SpectraMAX Gemini microplate reader (Molecular Devices Inc, Sunnyvale, Calif.) was used. The samples were excited at 540 nm and their emission was measured at 590 nm. LDH assay was performed 24 h after encapsulation of the cells. The assay was performed using a commercially available kit (Roche Applied Science, Indianapolis, Ind.). The levels of extracellular LDH activity were determined using a UV-vis SpectraMAX microplate reader (Molecular Devices, Sunnyvale, Calif.) by absorbance at 492 nm.
(§4) During the encapsulation process, mammalian cells were exposed to individual and aggregated SNPs in the surrounding solutions as gel formation proceeds. SNPs can be mildly cytotoxic. The toxicity of the encapsulation process was analyzed by incubating mammalian cells in 0.01 and 0.03 M SNP solutions. These were the concentrations used in the gels. After 24 h of incubation in the presence of SNPs, the cell membrane integrity and MA was measured.
(§5) Another factor for cytotoxicity is the formation of cytotoxic by-products such as EG during the hydrolysis reaction. HFF and MEF cells were incubated with 0.19 and 0.38 M EG to test for cytotoxicity. The concentrations of EG used in these experiments were based on the stoichiometric reaction of 10% (v/v) THEOS assuming a complete reaction. […] FIG. 6 illustrates cytotoxicity of SNPs and EG on: (A) HFF, (B) MEF.

MEF cells = assay type: cell-based; conditions: 0.19 and 0.38 M EG, 48 h incubation
Protocol: as §1, §2, §3, §4, §5

Structure (SMILES): OCCO [EG, ethylene glycol]
- cell membrane damage (HFF cells): did not cause any cell membrane damage
- effect on MA of the cells (HFF cells): nor had any effects on the MA
- cell membrane damage (MEF cells): did not cause any cell membrane damage
- effect on MA of the cells (MEF cells): nor had any effects on the MA
